Data taken from publication PMC9197942 (Clinical cancer research : an official journal of the …, 2022).
Where two headings read alike, the source gives them in different places.

Assays:
[1] = system: patients with chronic GVHD; assay: Study KD025-213 efficacy, belumosudil 200 mg daily cohort; format: in vivo, human; conditions: for Median time from first response to death or new systemic therapy: 49 responders; for Overall response rate (ORR) through Cycle 7 Day 1 (CR or PR): N=65, 2014 NIH consensus criteria, FDA adjudicated; for Patients with 7-point or greater decrease in Lee Symptom Scale summary score through Cycle 7 Day 1: N=65, exploratory; for Median duration of response: responders
[2] = Clinical pharmacokinetics of belumosudil; format: in vivo, human
[3] = Population pharmacokinetics; parameters: species or system human; conditions: in comparison to healthy volunteers
CYP3A4 = CYP3A4 (Homo sapiens, UniProt P08684); assay: In vitro metabolism; format: in vitro ADME
Sequence of CYP3A4 (P08684 whole entry): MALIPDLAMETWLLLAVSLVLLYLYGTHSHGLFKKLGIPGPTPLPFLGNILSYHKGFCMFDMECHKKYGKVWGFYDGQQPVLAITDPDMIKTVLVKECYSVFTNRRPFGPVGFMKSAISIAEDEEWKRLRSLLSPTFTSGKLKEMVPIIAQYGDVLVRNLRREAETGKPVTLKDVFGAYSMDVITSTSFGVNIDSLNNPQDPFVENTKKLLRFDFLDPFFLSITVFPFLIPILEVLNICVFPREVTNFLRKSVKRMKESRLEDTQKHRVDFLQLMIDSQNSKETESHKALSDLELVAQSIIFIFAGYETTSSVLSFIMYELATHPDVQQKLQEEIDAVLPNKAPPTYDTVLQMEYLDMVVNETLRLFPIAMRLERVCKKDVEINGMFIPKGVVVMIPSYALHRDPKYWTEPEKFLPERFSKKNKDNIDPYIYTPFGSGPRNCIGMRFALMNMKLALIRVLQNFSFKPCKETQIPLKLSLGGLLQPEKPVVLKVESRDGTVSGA

CYP2C8 = CYP2C8 (Homo sapiens, UniProt P10632); assay: In vitro metabolism; format: in vitro ADME
Sequence of CYP2C8 (P10632 whole entry): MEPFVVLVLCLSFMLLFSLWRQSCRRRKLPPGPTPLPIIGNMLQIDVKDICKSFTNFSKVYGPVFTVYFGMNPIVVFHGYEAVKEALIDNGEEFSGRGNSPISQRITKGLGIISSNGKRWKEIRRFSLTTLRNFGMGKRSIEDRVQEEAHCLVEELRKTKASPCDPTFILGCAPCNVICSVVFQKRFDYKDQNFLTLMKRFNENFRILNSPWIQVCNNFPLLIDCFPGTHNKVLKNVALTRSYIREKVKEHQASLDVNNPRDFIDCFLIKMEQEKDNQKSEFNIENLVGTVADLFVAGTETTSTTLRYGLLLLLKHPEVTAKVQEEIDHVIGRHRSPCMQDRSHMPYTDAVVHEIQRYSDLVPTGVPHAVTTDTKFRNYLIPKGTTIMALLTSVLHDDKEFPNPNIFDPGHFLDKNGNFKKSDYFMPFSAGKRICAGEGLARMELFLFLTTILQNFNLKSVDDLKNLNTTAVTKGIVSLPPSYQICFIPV

ROCK2 = ROCK2 (Homo sapiens, UniProt O75116); assay: ROCK2 inhibition; format: biochemical
Sequence of ROCK2 (O75116 whole entry): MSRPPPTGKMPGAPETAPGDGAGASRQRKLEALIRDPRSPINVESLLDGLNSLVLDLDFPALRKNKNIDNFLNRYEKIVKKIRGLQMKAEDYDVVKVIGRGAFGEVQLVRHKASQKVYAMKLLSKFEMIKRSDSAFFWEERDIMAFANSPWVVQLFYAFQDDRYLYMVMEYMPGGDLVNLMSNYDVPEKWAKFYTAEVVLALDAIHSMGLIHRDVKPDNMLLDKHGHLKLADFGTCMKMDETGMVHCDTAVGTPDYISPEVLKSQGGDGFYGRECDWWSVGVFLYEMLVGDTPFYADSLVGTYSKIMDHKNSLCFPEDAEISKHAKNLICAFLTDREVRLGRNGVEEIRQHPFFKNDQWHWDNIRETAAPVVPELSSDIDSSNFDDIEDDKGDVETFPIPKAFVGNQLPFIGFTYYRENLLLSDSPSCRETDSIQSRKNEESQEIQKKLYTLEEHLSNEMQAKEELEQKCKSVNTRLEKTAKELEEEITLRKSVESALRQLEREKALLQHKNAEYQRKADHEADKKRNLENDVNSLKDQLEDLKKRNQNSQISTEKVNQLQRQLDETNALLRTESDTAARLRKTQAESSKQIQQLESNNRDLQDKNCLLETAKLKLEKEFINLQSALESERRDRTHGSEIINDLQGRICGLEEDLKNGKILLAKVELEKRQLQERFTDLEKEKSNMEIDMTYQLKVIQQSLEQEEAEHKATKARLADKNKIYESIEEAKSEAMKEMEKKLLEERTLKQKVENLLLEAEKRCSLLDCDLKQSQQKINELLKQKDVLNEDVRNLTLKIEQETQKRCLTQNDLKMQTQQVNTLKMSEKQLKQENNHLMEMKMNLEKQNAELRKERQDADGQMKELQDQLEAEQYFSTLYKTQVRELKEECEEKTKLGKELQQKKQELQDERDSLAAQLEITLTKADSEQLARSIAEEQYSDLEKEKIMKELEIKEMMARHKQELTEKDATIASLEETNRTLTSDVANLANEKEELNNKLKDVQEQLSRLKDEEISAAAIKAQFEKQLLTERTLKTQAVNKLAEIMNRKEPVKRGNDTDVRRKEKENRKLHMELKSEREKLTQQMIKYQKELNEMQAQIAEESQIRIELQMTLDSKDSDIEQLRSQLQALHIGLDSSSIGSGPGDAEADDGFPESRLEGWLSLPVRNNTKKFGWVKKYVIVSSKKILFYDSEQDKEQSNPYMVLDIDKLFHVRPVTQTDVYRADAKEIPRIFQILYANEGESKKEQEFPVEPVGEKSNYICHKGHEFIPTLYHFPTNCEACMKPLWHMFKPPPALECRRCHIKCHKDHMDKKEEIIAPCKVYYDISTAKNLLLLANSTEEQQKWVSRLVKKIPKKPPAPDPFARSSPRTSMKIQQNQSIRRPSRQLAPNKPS

patients with cGVHD [4] = assay: Study KD025-208 dose-escalation trial; format: in vivo, human; conditions: 200 mg daily, 200 mg twice daily and 400 mg daily; 54 patients failing 1-3 prior lines
patients with cGVHD [5] = assay: Pooled exposure-response analyses; parameters: species or system human; conditions: 186 patients
UGT1A1 [6] = target: T1, UGT1A1 (Homo sapiens, UniProt P22309); assay: UGT1A1 inhibition; format: in vitro ADME; conditions: at concentrations that could be achieved clinically
T1 sequence (P22309 26-533): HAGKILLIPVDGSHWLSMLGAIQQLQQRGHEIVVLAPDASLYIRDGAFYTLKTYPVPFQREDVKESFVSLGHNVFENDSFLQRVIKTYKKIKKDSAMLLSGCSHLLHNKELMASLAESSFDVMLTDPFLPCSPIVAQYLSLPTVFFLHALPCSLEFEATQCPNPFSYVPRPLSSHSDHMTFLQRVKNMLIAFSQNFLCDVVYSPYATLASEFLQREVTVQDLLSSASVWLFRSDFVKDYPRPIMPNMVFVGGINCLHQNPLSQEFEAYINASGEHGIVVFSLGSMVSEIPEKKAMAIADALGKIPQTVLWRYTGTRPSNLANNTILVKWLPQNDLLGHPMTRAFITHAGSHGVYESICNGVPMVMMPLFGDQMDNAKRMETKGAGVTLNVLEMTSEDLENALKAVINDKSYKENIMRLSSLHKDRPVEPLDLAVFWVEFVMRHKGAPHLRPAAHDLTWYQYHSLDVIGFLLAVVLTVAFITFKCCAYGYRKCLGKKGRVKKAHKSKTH

Photoabsorbance in vitro = format: physicochemical
Tissue distribution = conditions: in vivo
[7] = target: human ether-à-go-go-related gene (hERG) current (Homo sapiens, UniProt Q12809); assay: hERG current in vitro; format: biochemical
Sequence of human ether-à-go-go-related gene (hERG) current (Q12809 whole entry): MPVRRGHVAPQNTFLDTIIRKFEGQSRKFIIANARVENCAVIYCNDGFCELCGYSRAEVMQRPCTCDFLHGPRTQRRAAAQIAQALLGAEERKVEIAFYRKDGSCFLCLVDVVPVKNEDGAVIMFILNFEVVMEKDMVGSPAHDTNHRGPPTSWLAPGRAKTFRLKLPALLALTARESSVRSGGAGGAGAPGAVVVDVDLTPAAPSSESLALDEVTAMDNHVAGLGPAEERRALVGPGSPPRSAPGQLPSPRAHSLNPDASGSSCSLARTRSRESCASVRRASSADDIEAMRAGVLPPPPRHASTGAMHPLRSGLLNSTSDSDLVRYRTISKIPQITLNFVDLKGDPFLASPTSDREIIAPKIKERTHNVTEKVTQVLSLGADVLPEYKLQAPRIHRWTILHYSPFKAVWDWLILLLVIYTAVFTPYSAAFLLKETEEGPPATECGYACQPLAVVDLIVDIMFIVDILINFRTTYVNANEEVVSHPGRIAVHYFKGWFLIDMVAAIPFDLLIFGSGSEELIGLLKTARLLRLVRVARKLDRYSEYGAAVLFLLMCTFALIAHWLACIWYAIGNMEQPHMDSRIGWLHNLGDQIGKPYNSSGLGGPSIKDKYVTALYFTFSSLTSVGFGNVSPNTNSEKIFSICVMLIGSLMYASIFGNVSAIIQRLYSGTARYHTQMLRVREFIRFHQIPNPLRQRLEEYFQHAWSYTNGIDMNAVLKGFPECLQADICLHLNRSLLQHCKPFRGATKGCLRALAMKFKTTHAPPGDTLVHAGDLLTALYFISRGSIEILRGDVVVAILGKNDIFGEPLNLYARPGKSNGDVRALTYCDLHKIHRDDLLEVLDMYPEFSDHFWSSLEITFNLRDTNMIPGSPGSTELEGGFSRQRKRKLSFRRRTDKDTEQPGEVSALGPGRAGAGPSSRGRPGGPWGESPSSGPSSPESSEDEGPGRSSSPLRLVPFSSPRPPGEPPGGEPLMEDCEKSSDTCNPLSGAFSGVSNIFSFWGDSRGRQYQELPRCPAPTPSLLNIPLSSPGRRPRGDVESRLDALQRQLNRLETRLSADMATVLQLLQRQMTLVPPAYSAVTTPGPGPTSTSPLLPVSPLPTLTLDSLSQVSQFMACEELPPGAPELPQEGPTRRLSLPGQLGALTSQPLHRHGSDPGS

animals = assay: Animal toxicology studies; format: in vivo
dogs = assay: Safety pharmacology studies in dogs; format: in vivo, dog
[8] = Reproductive toxicity studies; conditions: in vivo
[9] = system: adult patients with cGVHD; assay: Clinical safety, Studies KD025-208 and KD025-213, belumosudil 200 mg daily; format: in vivo, human
[10] = cited from earlier work
ROCK1 isoform = conditions: in vitro, compared with ROCK2; cited from earlier work
mTOR pathway = conditions: in vitro; cited from earlier work
[11] = system: human peripheral blood mononuclear cells; conditions: CD3-CD28 stimulation of human PBMC, ex-vivo or in vitro; cited from earlier work
STAT3 = conditions: ex-vivo or in vitro; cited from earlier work
MRTF = conditions: ex-vivo or in vitro; cited from earlier work
cGVHD mouse models = conditions: cited from earlier work
UGT1A1 [12] = target: T1, UGT1A1; conditions: cited from earlier work
p-glycoprotein = conditions: cited from earlier work
BCRP = conditions: cited from earlier work
OATP1B1 = conditions: cited from earlier work
CYP1A2 = conditions: cited from earlier work
CYP2C19 = conditions: cited from earlier work
CYP2D6 = CYP2D6 (Homo sapiens, UniProt P10635); conditions: cited from earlier work
Sequence of CYP2D6 (P10635 whole entry): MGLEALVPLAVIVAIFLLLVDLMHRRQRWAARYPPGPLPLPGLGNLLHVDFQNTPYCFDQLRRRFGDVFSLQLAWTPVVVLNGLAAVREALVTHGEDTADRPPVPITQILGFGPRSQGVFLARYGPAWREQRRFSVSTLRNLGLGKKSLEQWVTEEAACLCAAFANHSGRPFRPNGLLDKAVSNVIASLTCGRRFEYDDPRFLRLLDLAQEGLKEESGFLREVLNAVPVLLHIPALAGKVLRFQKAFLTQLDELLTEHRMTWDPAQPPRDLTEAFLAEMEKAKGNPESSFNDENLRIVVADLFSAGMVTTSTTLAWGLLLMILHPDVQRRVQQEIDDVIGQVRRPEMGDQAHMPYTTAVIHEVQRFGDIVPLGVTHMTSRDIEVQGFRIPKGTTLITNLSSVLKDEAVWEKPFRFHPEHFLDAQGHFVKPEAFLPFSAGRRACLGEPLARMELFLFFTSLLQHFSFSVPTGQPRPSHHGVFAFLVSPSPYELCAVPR

CYP3A = conditions: cited from earlier work
[13] = N=65, through Cycle 7 Day 1, listed as belumosudil
[14] = with proton pump inhibitor rabeprazole
[15] = with strong CYP3A inducer rifampicin

In the case of CC(C)NC(=O)COc1cccc(-c2nc(Nc3ccc4[nH]ncc4c3)c3ccccc3n2)c1 [Belumosudil], the “Median time from first response to death or new systemic therapy” value [1] is reported as “Not estimable”, the “Median time from first response to death or new systemic therapy” value ([1]; listed as belumosudil) is reported as “not reached” and the “Overall response rate (ORR) through Cycle 7 Day 1 (CR or PR)” value [1] is reported as 49 (75%) (63% - 85%). For the same molecule, the “Overall response rate (ORR) through Cycle 7 Day 1 (CR or PR)” value ([1]; listed as belumosudil) was 75%, the “Patients with 7-point or greater decrease in Lee Symptom Scale summary score through Cycle 7 Day 1” value [1] was “(52%) (40% - 65%)” and the “Patients with 7-point or greater decrease in Lee Symptom Scale summary score through Cycle 7 Day 1” value ([1]; listed as belumosudil) was 52%. The “Complete Response (CR)” value ([1]; N=65, through Cycle 7 Day 1) was 4 (6%), the “Partial Response (PR)” value ([1]; N=65, through Cycle 7 Day 1) was 45 (69%) and the “Complete Response (CR)” value [1, 13] was 6%. For the same molecule, the “Partial Response (PR)” value [1, 13] was 69%, the “Median duration of response” value [1] was 1.9 months (1.2-2.9 months) and the “Median duration of response” value ([1]; listed as belumosudil) was 1.9 months. The “Delay of Tmax with food” value ([2]; administration with food) was 0.5 h, the “Increase of AUC with food” value ([2]; administration with food) was 2 times and the “Increase of Cmax with food” value ([2]; administration with food) was 2.2 times. The “Excretion in feces unchanged” value ([2]; human, in vivo) was 30%, the Tmax ([2]; human, in vivo, oral) was 1.26 h and the “Effect of a diagnosis of GVHD on clearance” value [3] was “decreased clearance”. The “Metabolism by CYP3A4” value (CYP3A4) was “metabolized primarily”, the “Metabolism by CYP2C8” value (CYP2C8) was “to a lesser extent” and the ROCK2 inhibition (ROCK2) was “inhibitor”. For the same molecule, the “Activity in cGVHD” value (patients with cGVHD [4]) was “appeared to be active”, the “Relationship of response with exposure” value (patients with cGVHD [5]) was “no relationship” and the UGT1A1 inhibition (UGT1A1 [6]) was “inhibited”. The Photoabsorbance (Photoabsorbance in vitro) was “observed”, the Tissue distribution (Tissue distribution) was “distributed to photosensitive areas such as skin and uveal tract” and the hERG current [7] was “blocked”. The “Target organs of toxicity” value (animals) was “toxicities were observed in the gastrointestinal tract, liver, kidney, hemolymphoid system, and reproductive system”, the “Effect on blood pressure” value (dogs) was “lowering of the blood pressure” and the Embryo-fetal toxicity [8] was “embryo-fetal toxicity”. The Male fertility [8] was “impaired male fertility”, the “Incidence of Viral infection” value ([9]; Grades ≥ 3, 200 mg daily, n=83) was 4% and the “Adverse reactions leading to dose interruption” value ([9]; human, in vivo) was 29%. For the same molecule, the “Dose interruption due to diarrhea” value ([9]; human, in vivo) was 4%, the “Dose interruption due to infections” value ([9]; human, in vivo) was 11% and the “Reduction of belumosudil Cmax” value [10, 14] was “up to 87%”. The “Reduction of belumosudil overall exposure” value [10, 14] was “up to 80%”, the “Reduction of belumosudil Cmax” value [10, 15] was “approximately 60%” and the “Reduction of belumosudil overall exposure” value [10, 15] was “approximately 72%”. The ROCK1 isoform inhibition (ROCK1 isoform) was “with less potency”, the mTOR pathway inhibition (mTOR pathway) was “inhibited” and the “Secretion of IL-21 and IL-17” value [11] was “inhibited”. For the same molecule, the “STAT3 phosphorylation and transcriptional activity” value (STAT3) was “inhibited”, the MRTF-mediated gene expression (MRTF) was “inhibited” and the “cGVHD-related clinical and histological abnormality scores in the lung and skin” value (cGVHD mouse models) was “improvement”. The UGT1A1 inhibition (UGT1A1 [12]) was “inhibit”, the p-glycoprotein inhibition (p-glycoprotein) was “inhibit” and the BCRP inhibition (BCRP) was “inhibit”. For the same molecule, the OATP1B1 inhibition (OATP1B1) was “inhibit”, the CYP1A2 inhibition (CYP1A2) was “inhibit” and the CYP2C19 inhibition (CYP2C19) was “inhibit”. The CYP2D6 inhibition (CYP2D6) was “inhibit” and the “Effect on CYP3A” value (CYP3A) was “little effect”.

For NC(=O)COc1cccc(-c2nc(Nc3ccc4[nH]ncc4c3)c3ccccc3n2)c1 [KD025m1], the ROCK2 inhibition (ROCK2) was “inhibit”.

In the case of O=C(O)COc1cccc(-c2nc(Nc3ccc4[nH]ncc4c3)c3ccccc3n2)c1 [KD025m2], the ROCK2 inhibition (ROCK2) is reported as “inhibit”.
